Measurements published in US20030013660A1, “Dioxolane analogs for improved inter-cellular delivery” (Shire BioChem Inc., priority 2000, published 2003).
Several values for one entry are separate records, joined by “and”; a condition that tells them apart may be missing. Equal values may be shown once. Read-outs that look alike come from different tables or passages of the source.

Legend:
CCRF-CEM [1] = test: 3H-TdR incorporation at 72 hr (24 hr drug exposure, wash, 48 hr); type: cell-based; conditions: read-out: IC50 in μM (3H-TdR incorporation at 72 hr) CCRF-CEM 24 h, CCRF-CEM T-cell Leukemia, 72 hr assay
Procedure: (§1) Exposition of 24 hr to drug, wash, incubated for another 48 hr (total of 72 hr assay)
(§2) (3H-Thymidine Incorporation Assay)

CEM/dCK- [2] = test: as above; type: cell-based; conditions: for IC50: 24 h drug exposure, 72 hr assay; for Factor* (Resistance Factor = Ratio of dCK- on Wild-type CCRF-CEM): ratio of IC50 CEM/dCK- to IC50 CCRF-CEM
Procedure: as §1, §2

H-460 [3] = test: as above; type: cell-based, Human
Procedure: as §1, §2

MCF-7 = test: as above; type: cell-based, Human
Procedure: as §1, §2

SF-268 = test: as above; type: cell-based, Human; conditions: 24 h drug exposure, 72 hr assay
Procedure: as §1, §2

CCRF-CEM [4] = test: 3H-TdR (3H-thymidine) incorporation assay at 72 hr; type: cell-based; conditions: 3H-TdR incorporation at 72 hr
Procedure: (§3) Table of IC50 Values (μM) for Controls
as §1, §2

CEM/dCK- [5] = test: 3H-TdR (3H-thymidine) incorporation assay at 72 hr; type: cell-based; conditions: Homo sapiens, CCRF-CEM, read-out: IC50 CEM/dCK- 24 h, 24 h drug exposure, wash, another 48 hr; deoxycytidine kinase-deficient CCRF-CEM
Procedure: as §3, §1, §2

H-460 [6] = test: 3H-TdR (3H-thymidine) incorporation assay at 72 hr; type: cell-based, Human; conditions: 3H-TdR incorporation at 72 hr
[7] = Homo sapiens, CCRF-CEM, read-out: IC50 in μM (3H-TdR incorporation at 72 hr) CEM/dCK- 24 h, CCRF-CEM deoxycytidine kinase-deficient
[8] = Homo sapiens, NCI-H460, read-out: IC50 in μM (3H-TdR incorporation at 72 hr) H-460 24 h, H-460 Human Lung Carcinoma, 72 hr assay
[9] = Homo sapiens, MCF7, read-out: IC50 in μM (3H-TdR incorporation at 72 hr) MCF-7 24 h, MCF-7 Human Breast Carcinoma, 72 hr assay
[10] = Homo sapiens, SF-268, read-out: IC50 in μM (3H-TdR incorporation at 72 hr) SF-268 24 h, SF-268 Human Central Nervous System Tumor
[11] = read-out: IC50 in μM (3H-TdR incorporation at 72 hr) MCF-7 24 h, MCF-7 Human Breast Carcinoma, 72 hr assay
[12] = read-out: IC50 in μM (3H-TdR incorporation at 72 hr) SF-268 24 h, SF-268 Human Central Nervous System Tumor
[13] = read-out: IC50 in μM (3H-TdR incorporation at 72 hr) CEM/dCK- 24 h, CCRF-CEM deoxycytidine kinase-deficient
[14] = read-out: IC50 in μM (3H-TdR incorporation at 72 hr) H-460 24 h, H-460 Human Lung Carcinoma, 72 hr assay

CCCCN(/C=N/c1ccn([C@@H]2CO[C@H](CO)O2)c(=O)n1)CCCC (stereo in doubt) [Compound 221, N,N-Dibutyl-N′-[1-(2-hydroxymethyl [1,3]dioxolan-4-yl)-2-oxo-1,2-dihydro-pyrimidin-4-yl]-formamidine]
IC50 (CCRF-CEM [1]; Homo sapiens, CCRF-CEM): 0.13 µM
IC50 (CEM/dCK- [2]; [7]): > 100 µM
Factor* (Resistance Factor = Ratio of dCK- on Wild-type CCRF-CEM) (CEM/dCK- [2]): >769
IC50 (H-460 [3]; [8]): 0.43 µM
IC50 (MCF-7; [9]): 0.39 µM
IC50 (SF-268; [10]): 1.6 µM

CN(C)/C=N/c1ccn([C@@H]2CO[C@H](CO)O2)c(=O)n1 (stereo in doubt) [Compound 222, N′-[1-(2-HYDROXYMETHYL- [1,3]DIOXOLAN-4-YL)-2- OXO-1,2-DIHYDRO- PYRIMIDIN-4-YL]-N,N- DIMETHYL-FORMAMIDINE]
IC50 (CCRF-CEM [1]; Homo sapiens, CCRF-CEM): 0.11 µM
IC50 (CEM/dCK- [2]; [7]): > 100 µM
Factor* (Resistance Factor = Ratio of dCK- on Wild-type CCRF-CEM) (CEM/dCK- [2]): >909
IC50 (H-460 [3]; [8]): 0.21 µM
IC50 (MCF-7; [9]): 0.19 µM
IC50 (SF-268; [10]): 0.85 µM

O=C(Nc1ccn([C@@H]2CO[C@H](CO)O2)c(=O)n1)C12C[C@@H]3C[C@@H](C[C@@H]1C3)C2 (stereo in doubt) [Compound 231, Hexahydro-2,5-Methano-Pentalene-3A-Carboxylic Acid [1-(2-Hydroxymethyl-[1,3]Dioxolan-4-Yl)-2-Oxo-1,2-Dihydro-Pyrimidin-4-Yl]-Amide]
IC50 (CCRF-CEM [1]; Homo sapiens, CCRF-CEM): 0.076 µM
IC50 (CEM/dCK- [2]; [7]): > 100 µM
IC50 (SF-268; [10]): 1.1 µM

O=c1nc(/N=C2/CCCN2Cc2ccccc2)ccn1[C@@H]1CO[C@H](CO)O1 (stereo in doubt) [Compound 236, 4-(1-BENZYL-PYRROLIDIN- 2-YLIDENEAMINO)-1-(2- HYDROXYMETHYL- [1,3]DIOXOLAN-4-YL)-1H- PYRIMIDIN-2-ONE]
IC50 (CCRF-CEM [1]; Homo sapiens, CCRF-CEM): 5.1 µM
IC50 (CEM/dCK- [2]; [7]): > 100 µM
Factor* (Resistance Factor = Ratio of dCK- on Wild-type CCRF-CEM) (CEM/dCK- [2]): >20
IC50 (H-460 [3]; [8]): 3.7 µM
IC50 (MCF-7; [9]): 8.6 µM
IC50 (SF-268; [10]): 0.12 µM

Cc1cccc(C)c1C(=O)OC[C@H]1OC[C@@H](n2ccc(N)nc2=O)O1 [Compound 162, 1-[2-(2,6-DIMETHYL- BENZOYLOXYMETHYL)- [1,3]DIOXOLAN-4-YL]-2- OXO-1,2-DIHYDRO PYRIMIDIN-4-YL- AMMONIUM; CHLORIDE]
IC50 (CCRF-CEM [1]; Homo sapiens, CCRF-CEM): 3.3 µM
IC50 (CCRF-CEM [1]): 4.1 µM
IC50 (CEM/dCK- [2]; [7]): > 100 µM
IC50 (CCRF-CEM [4]; Homo sapiens, CCRF-CEM, read-out: IC50 CCRF-CEM 24 h, 24 h drug exposure, wash, another 48 hr): 2.2 µM
IC50 (CCRF-CEM [4]; read-out: IC50 CCRF-CEM 24 h, 24 h drug exposure, wash, another 48 hr): 2.8 µM
IC50 (CEM/dCK- [5]): > 100 µM
IC50 (H-460 [6]; Homo sapiens, NCI-H460, read-out: IC50 H-460 24 h, 24 h drug exposure, wash, another 48 hr): 8.4 µM
IC50 (H-460 [6]; read-out: IC50 H-460 24 h, 24 h drug exposure, wash, another 48 hr): 6.4 µM
IC50 (MCF-7; [9]): 5.7 µM
IC50 (MCF-7; [11]): 3.6 µM
IC50 (SF-268; [10]): 12 µM
IC50 (SF-268; [12]): 17 µM

Nc1ccn([C@@H]2CO[C@H](COC(=O)c3ccccc3)O2)c(=O)n1 [Compound 163, BENZOIC ACID 4-(4- AMINO-2-OXO-2H- PYRIMIDIN-1-YL)- [1,3]DIOXOLAN-2- YLMETHYL ESTER]
IC50 (CCRF-CEM [1]; Homo sapiens, CCRF-CEM): 0.0033 µM
IC50 (CEM/dCK- [2]; [7]): 27 µM
Factor* (Resistance Factor = Ratio of dCK- on Wild-type CCRF-CEM) (CEM/dCK- [2]): 8,182
IC50 (H-460 [3]; [8]): 0.0092 µM
IC50 (MCF-7; [9]): 0.033 µM
IC50 (SF-268; [10]): 0.025 µM

CN(C)CCCOC(=O)OC[C@H]1OC[C@@H](n2ccc(N)nc2=O)O1.O=C(O)C(F)(F)F [Compound 164, CARBONIC ACID 4-(4- AMINO-2-OXO-2H- PYRIMIDIN-1-YL)- [1,3]DIOXOLAN-2- YLMETHYL ESTER 3- DIMETHYLAMINO-PROPYL ESTER TRIFLUORO-ACETIC ACID SALT]
IC50 (CCRF-CEM [1]; Homo sapiens, CCRF-CEM): 0.06 µM
IC50 (CEM/dCK- [2]; [7]): > 100 µM
Factor* (Resistance Factor = Ratio of dCK- on Wild-type CCRF-CEM) (CEM/dCK- [2]): 1667
IC50 (H-460 [3]; [8]): 0.13 µM
IC50 (MCF-7; [9]): 0.14 µM
IC50 (SF-268; [10]): 0.28 µM

O=C(NCNc1ccn([C@@H]2CO[C@H](CO)O2)c(=O)n1)c1ccccc1 [Compound 165, N-{[1-(2-HYDROXYMETHYL- [1,3]DIOXOLAN-4-YL)-2- OXO-1,2-DIHYDRO- PYRIMIDIN-4-YLAMINO]- METHYL}-BENZAMIDE]
IC50 (CCRF-CEM [1]; Homo sapiens, CCRF-CEM): 1.8 µM
IC50 (CEM/dCK- [2]; [7]): > 100 µM
Factor* (Resistance Factor = Ratio of dCK- on Wild-type CCRF-CEM) (CEM/dCK- [2]): >56
IC50 (H-460 [3]; [8]): 3.4 µM
IC50 (MCF-7; [9]): 10 µM
IC50 (SF-268; [10]): 16 µM

COc1ccc(C(=O)OC[C@H]2OC[C@@H](n3ccc(N)nc3=O)O2)cc1 [Compound 176, 4-METHOXY-BENZOIC ACID 4-(4-AMINO-2-OXO-2H- PYRIMIDIN-1-YL)- [1,3]DIOXOLAN-2- YLMETHYL ESTER]
IC50 (CCRF-CEM [1]; Homo sapiens, CCRF-CEM): 0.014 µM
IC50 (CCRF-CEM [1]): 0.011 µM
IC50 (CEM/dCK- [2]; [7]): 38 µM
IC50 (CEM/dCK- [2]; [13]): 68 µM
IC50 (H-460 [3]; [8]): 0.04 µM
IC50 (H-460 [3]; [14]): 0.043 µM
IC50 (SF-268; [10]): 0.057 µM
IC50 (SF-268; [12]): 0.032 µM

CCCCCCc1ccc(C(=O)OC[C@H]2OC[C@@H](n3ccc(N)nc3=O)O2)cc1 [Compound 191, 4-HEXYL-BENZOIC ACID 4- (4-AMINO-2-OXO-2H- PYRIMIDIN-1-YL)- [1,3]DIOXOLAN-2-YL METHYL ESTER]
IC50 (CCRF-CEM [1]; Homo sapiens, CCRF-CEM): < 0.0001 µM
IC50 (H-460 [3]; [8]): < 0.0001 µM
IC50 (MCF-7; [9]): < 0.0001 µM
IC50 (SF-268; [10]): < 0.0001 µM

O=C(CCCCCCCc1ccccc1)Nc1ccn([C@@H]2CO[C@H](CO)O2)c(=O)n1 [Compound 197, 8-PHENYL-OCTANOIC ACID [1-(2-HYDROXYMETHYL- [1,3]DIOXOLAN-4-YL)-2- OXO-1,2-DIHYDRO- PYRIMIDIN-4-YL]-AMIDE]
IC50 (CCRF-CEM [1]; Homo sapiens, CCRF-CEM): < 0.0001 µM
IC50 (H-460 [3]; [8]): < 0.0001 µM
IC50 (MCF-7; [9]): < 0.0001 µM
IC50 (SF-268; [10]): < 0.0001 µM

Nc1ccn([C@@H]2CO[C@H](COC(=O)CCCCCCCc3ccccc3)O2)c(=O)n1 [Compound 198, 8-PHENYL-OCTANOIC ACID 4-(4-AMINO-2-OXO-2H- PYRIMIDIN-1-YL)- [1,3]DIOXOLAN-2-YL METHYL ESTER]
IC50 (CCRF-CEM [1]; Homo sapiens, CCRF-CEM): < 0.0001 µM
IC50 (H-460 [3]; [8]): < 0.0001 µM
IC50 (SF-268; [10]): < 0.0001 µM

O=C(Nc1ccn([C@@H]2CO[C@H](CO)O2)c(=O)n1)C1(c2ccccc2)CCCC1 [Compound 229, 1-PHENYL- CYCLOPENTANECARBOXYLIC ACID [1-(2- HYDROXYMETHYL- [1,3]DIOXOLAN-4-YL)-2- OXO-1,2-DIHYDRO- PYRIMIDIN-4-YL]-AMIDE]
IC50 (CCRF-CEM [1]; Homo sapiens, CCRF-CEM): 11 µM
IC50 (CEM/dCK- [2]; [7]): > 100 µM
Factor* (Resistance Factor = Ratio of dCK- on Wild-type CCRF-CEM) (CEM/dCK- [2]): >9
IC50 (H-460 [3]; [8]): 13 µM
IC50 (H-460 [3]; [14]): 14 µM
IC50 (MCF-7; [9]): 15 µM
IC50 (MCF-7; [11]): 18 µM

CCC(CC)(CCCCCCc1ccccc1)C(=O)OC[C@H]1OC[C@@H](n2ccc(N)nc2=O)O1 [Compound 233, 2,2-DIETHYL-8-PHENYL- OCTANOIC ACID 4-(4- AMINO-2-OXO-2H- PYRIMIDIN-1-YL)- [1,3]DIOXOLAN-2-YL METHYL ESTER]
IC50 (CCRF-CEM [1]; Homo sapiens, CCRF-CEM): 11 µM
IC50 (CCRF-CEM [1]): 9.7 µM
IC50 (CEM/dCK- [2]; [7]): 18 µM
IC50 (CEM/dCK- [2]; [13]): 22 µM
IC50 (MCF-7; [9]): 13 µM
IC50 (MCF-7; [11]): 9.6 µM and 11 µM
IC50 (SF-268; [10]): 12 µM
IC50 (SF-268; [12]): 17 µM and 15 µM
